One assay concerns the target thrombin (Homo sapiens, UniProt P00734). Briefly: Kinetic evaluation of thrombin inhibition (Lineweaver-Burke and Dixon plot analyses). It counts as biochemical. The text has this: Using a known amount of thrombin, a standard curve is constructed with known amount of hirudin or hirudin analog by adding hirudin to thrombin, and measuring residual thrombin activity using […] substrate S-2238. Thrombin inhibition by derivatized hirudin (hirudin-SPDP) or immobilized hirudin (the polyethylene terphthalate material with immobilized hirudin) is then compared to nonderivatized hirudin values by equating ED50 values using 10 NIH units/ml thrombin, and measuring residual thrombin activity.
Peak 3 conjugate material (shown in FIG. 4C and lane A in FIG. 5A) is evaluated by kinetic analysis. Kinetic evaluation of the ability of the peak 3 conjugate to inhibit thrombin activity is compared to hirudin alone. […] These determinations are made by Lineweaver-Burke and Dixon plot analyses. The inhibitor constant for hirudin is determined to be 1.7×10^-12. The inhibitor constant for the conjugate is 1.8×10^-11. There is a 10-fold loss in binding affinity when comparing the Ki values of hirudin to the conjugate, respectively. In a biologic or physiologic system, the different abilities of hirudin and conjugate to inhibit thrombin are insignificant.

The subject of assay [1] is thrombin-mediated platelet aggregation. Briefly: Inhibition of thrombin-mediated platelet aggregation and simultaneous ATP release (whole blood platelet aggregometer). Type of assay: cell-based. To be noted: Thrombin 0.1 NIHU. The text has this:
Investigation of the biologic activity of hirudin covalently linked to albumin is examined by inhibiting thrombin-mediated platelet aggregation. A whole blood platelet aggregometer (Chronolog Corp., Havertown, PA) is used to measure platelet aggregation and simultaneous ATP release. Platelet aggregation is selected to quantify inhibition of thrombin events other than fibrin formation.

A further assay concerns blood. Briefly: Thrombin time of blood containing inhibitor. The conditions noted are these: 0.2 ATU/ml blood sample. On the procedure: In addition, hirudin conjugated to a stable, soluble molecule increases hirudin stability in the bloodstream. For example, 0.1 anti-thrombin units (ATU) of hirudin conjugate standard/ml of blood increases normal thrombin time to 45 seconds. A blood sample containing 0.2 ATU of unconjugated hirudin/ml increases patient thrombin time to 90 seconds. Using this knowledge, the amount of hirudin in a patient's plasma can be calculated to be 0.15 ATU if the patient's thrombin time is determined to be 68 seconds.

As for hirudin, the type of inhibition result on thrombin is “noncompetitive inhibitor of a linear mixed type”. For the same substance, in assay [1] (inhibitor 0.12 ATU), the “% Inh. ATP Release” value is listed as 56%, the “% Inh. Plate. Aggreg.” value turned out to be 52%, the “ATP Release” value was determined as 0.60 µM and the “Aggreg. OHMS/6 min.” value is on record as 15.7 OHMS/6 min. In assay [1] (inhibitor 1.15 ATU), the “% Inh. ATP Release” value came out at 100%, the “% Inh. Plate. Aggreg.” value amounted to 100%, the “ATP Release” value came out at 0 µM and the “Aggreg. OHMS/6 min.” value is recorded as 0 OHMS/6 min. The same substance yielded a thrombin time in the assay on blood of 90 s.

For the origin of these results see patent publication US5112615A, “Soluble hirudin conjugates” (New England Deaconess Hospital Corporation, priority 1990, dated 1992).
